In patent US4956179A, “Antibacterial combination of penicillin and cephalosporin” (priority 1971, dated 1990):

Experiments:
Type in all cases: cell-based
[1] = system: clinically isolated coliform bacterium (No. 9/70); assay: M.I.C., serial dilution test (Example 2); details: coliform No. 9/70; penicillin alone, II alone, 1:1 combination
Description: (§1) The in vitro activity of 6-(D-α-aminophenylacetamido) penicillanic acid (I), 6-[(hexahydro-1H-azepin-1-yl)methyleneamino]penicillanic acid (II) and of a combination (III) of equal parts of the two compounds against clinically isolated enterobacteria was determined in a serial dilution test. Tryptose phosphate broth, containing the appropriate concentrations of the compounds or of the combination of them, was inoculated with 0.5×10^4 -5×10^4 organisms of the various micro-organisms tested and incubated overnight at 37° C. Minimum inhibitory concentrations (M.I.C.) were taken as the concentrations of the compounds or of the combination at which no visible growth occurred.
Using the same technique as described in Example 1 the in vitro-activity of 6-[(hexahydro-1H-azepin-1-yl)methyleneamino]penicillanic acid (II), of various penicillins and of 1:1-combinations of II with the respective penicillin was determined against a clinically isolated coliform bacterium (No. 9/70).

Coliform 10/70 = assay: M.I.C., serial dilution test in tryptose phosphate broth (Example 1); details: Coliform strain 10/70; overnight at 37° C; III = equal parts I and II
Description: as §1

Coliform 3/70 = assay: as above; details: Coliform strain 3/70; overnight at 37° C; III = equal parts I and II
Description: as §1

Proteus 12/70 = assay: as above; details: Proteus strain 12/70; overnight at 37° C; III = equal parts I and II
Description: as §1

Proteus 13/70 = assay: as above; details: Proteus strain 13/70; overnight at 37° C; III = equal parts I and II
Description: as §1

Proteus 20/70 = assay: as above; details: Proteus strain 20/70; overnight at 37° C; III = equal parts I and II
Description: as §1

Proteus vulgaris B = assay: as above; details: overnight at 37° C, III = equal parts I and II
Description: as §1

Coliform 14/70 = assay: M.I.C., serial dilution test (Example 4); details: Coliform strain 14/70; V = equal parts I and IV
Description: as §1

Coliform 16/70 = assay: M.I.C., serial dilution test (Example 4); details: Coliform strain 16/70; V = equal parts I and IV
Description: as §1

Coliform 7/70 = assay: M.I.C., serial dilution test (Example 4); details: Coliform strain 7/70; V = equal parts I and IV
Description: as §1

[2] = system: Klebsiella-Enterobacter. 1/70; assay: M.I.C., serial dilution test (Example 4); details: Klebsiella-Enterobacter. strain 1/70; V = equal parts I and IV
Description: as §1

[3] = system: Klebsiella-Enterobacter. 10/70; assay: M.I.C., serial dilution test (Example 4); details: Klebsiella-Enterobacter. strain 10/70; V = equal parts I and IV
Description: as §1

[4] = system: Klebsiella-Enterobacter. 431; assay: M.I.C., serial dilution test (Example 4); details: Klebsiella-Enterobacter. strain 431; V = equal parts I and IV
Description: as §1

[5] = system: Klebsiella-Enterobacter. 5/70; assay: M.I.C., serial dilution test (Example 4); details: Klebsiella-Enterobacter. strain 5/70; V = equal parts I and IV
Description: as §1

[6] = system: Klebsiella-Enterobacter. 7/70; assay: M.I.C., serial dilution test (Example 4); details: Klebsiella-Enterobacter. strain 7/70; V = equal parts I and IV
Description: as §1

[7] = system: Klebsiella-Enterobacter. 9/70; assay: M.I.C., serial dilution test (Example 4); details: Klebsiella-Enterobacter. strain 9/70; V = equal parts I and IV
Description: as §1

Proteus 10/70 = assay: M.I.C., serial dilution test (Example 4); details: Proteus strain 10/70; V = equal parts I and IV
Description: as §1

Proteus 4/70 = assay: M.I.C., serial dilution test (Example 4); details: Proteus strain 4/70; V = equal parts I and IV
Description: as §1

Proteus 7/70 = assay: M.I.C., serial dilution test (Example 4); details: Proteus strain 7/70; V = equal parts I and IV
Description: as §1

Proteus 9/70 = assay: M.I.C., serial dilution test (Example 4); details: Proteus strain 9/70; V = equal parts I and IV
Description: as §1

[8] = system: clinically isolated coliform; assay: Emergence of resistance, subculturing by serial twofold broth dilution (Example 7); details: I + II 1:1
Description: The strain used was a clinically isolated coliform. As inocula were used bacteria from the tube with the highest concentration of compound still permitting visible growth to the naked eye after incubation at 37° C. overnight.

Coliforma strain 4 = assay: MIC, serial dilution test (Example 9); details: 1:2 and 2:1 given as I + VII concentrations
Description: as §1
(§2) Using the technique described in Example 1 the in vitro effect of combinations of 6-(D-α-aminophenylacetamido)-penicillanic acid (I) and 6-[(N,N-diethylformamidino)-N'-amino]penicillanic acid (VII) in the ratios 1:1, 1:2 and 2:1 against clinically isolated strains of Coliforma, Klebsiella-Enterobacter and Proteus was determined in serial dilution tests.

[9] = system: Klebsiella-Enterobacter strain 7; assay: MIC, serial dilution test (Example 9); details: 1:2 and 2:1 given as I + VII concentrations
Description: as §1, §2

Proteus strain 9 = assay: MIC, serial dilution test (Example 9); details: 1:2 and 2:1 given as I + VII concentrations
Description: as §1, §2

[10] = system: Klebsiella-Enterobacter strain 1; assay: MIC, serial dilution test (Example 9); details: 1:2 and 2:1 given as I + VII concentrations
Description: (§3) Tryptose phosphate broth, containing the appropriate concentrations of the compounds or of the combination of them, was inoculated with 0.5×10^4 -5×10^4 organisms of the various micro-organisms tested and incubated overnight at 37° C. Minimum inhibitory concentrations (M.I.C.) were taken as the concentrations of the compounds or of the combination at which no visible growth occurred.

[11] = system: Klebsiella-Enterobacter strain 5; assay: MIC, serial dilution test (Example 9); details: 1:2 and 2:1 given as I + VII concentrations
Description: as §3

Coliform 9/70 = assay: M.I.C., serial dilution test in tryptose phosphate broth (Example 1); details: Coliform strain 9/70; overnight at 37° C; III = equal parts I and II
Description: as §1

[12] = system: clinically isolated strain of Proteus (Proteus Mirabilis I 190); assay: M.I.C., serial dilution test (Example 11); details: cephalosporin alone, II alone, 1:1 combination
Description: as §1
Using the same technique as described in Example 1 the in vitro activity of 6-[(hexahydro-1H-azepin-1-yl)methyleneamino]penicillanic acid (II), of various cephalosporins and of 1:1 combinations of II with these cephalosporins was determined against a clinically isolated strain of Proteus (Proteus Mirabilis I 190).

E.coli III = assay: Emergence of resistance, subculturing by serial twofold broth dilution (Example 6); details: passage 2; I + IV 1:1
Description: Subculturing using a serial twofold broth dilution technique was performed with 6-(D-α-amino-phenylacetamido)-penicillanic acid (I), 6-[(piperidyl-1)methyleneamino]penicillanic acid (IV) and a 1:1 combination of I+IV. As inocula were used bacteria from the tube with the highest concentration of compound still permitting visible growth to the naked eye after incubation at 37° C. overnight. The following increases in MIC-values were noted.

Coliforma strain 14 = assay: MIC, serial dilution test (Example 8); details: VI + VII equal parts
Description: as §1
(§4) Using the technique described in Example 1 the in vitro activity of cephalotin (VI) and 6-[(N,N-diethylformamidino)-N'-amino]penicillanic acid (VII) and of a combination of equal parts of the compounds against clinically isolated strains of Coliforma and Klebsiella-Enterobacter was determined in serial dilution tests.

Coliforma strain 3 = assay: MIC, serial dilution test (Example 8); details: VI + VII equal parts
Description: as §1, §4

Coliforma strain 7 = assay: MIC, serial dilution test (Example 8); details: VI + VII equal parts
Description: as §1, §4

[13] = system: Klebsiella-Enterobacter strain 5; assay: MIC, serial dilution test (Example 8); details: VI + VII equal parts
Description: as §3

[14] = system: clinically isolated strain of Klebsiella-Enterobacter (strain 4/71); assay: M.I.C., serial dilution test (Example 10); details: cephalosporin alone, II alone, 1:1 combination
Description: as §1
Using the same technique as described in Example 1 the in vitro activity of 6-[(hexahydro-1H-azepin-1-yl)methyleneamino]penicillanic acid (II), of various cephalosporins previously mentioned in this specification, and of 1:1 combinations of II with these cephalosporins was determined against a clinically isolated strain of Klebsiella-Enterobacter (strain 4/71)

CC1(C)S[C@@H]2[C@H](NC(=O)Cc3ccccc3)C(=O)N2[C@H]1C(=O)O [benzylpenicillin]
M.I.C. [1]: 25 µg/mL

CC1(C)S[C@@H]2[C@H](NC(=O)[C@H](N)c3ccccc3)C(=O)N2[C@H]1C(=O)O [I, 6-(D-α-aminophenylacetamido)penicillanic acid]
M.I.C. (Coliform 10/70): 3.12 µg/mL
M.I.C. (Coliform 3/70): 1.56 µg/mL
M.I.C. (Proteus 12/70): 100 µg/mL
M.I.C. (Proteus 13/70): 100 µg/mL
M.I.C. (Proteus 20/70): > 100 µg/mL
M.I.C. (Proteus vulgaris B): 50 µg/mL
M.I.C. (Coliform 14/70): 6.25 µg/mL
M.I.C. (Coliform 16/70): 3.12 µg/mL
M.I.C. (Coliform 7/70): 3.12 µg/mL
M.I.C. [2]: 50 µg/mL
M.I.C. [3]: 50 µg/mL
M.I.C. [4]: 100 µg/mL
M.I.C. [5]: 100 µg/mL
M.I.C. [6]: > 100 µg/mL
M.I.C. [7]: 50 µg/mL
M.I.C. (Proteus 10/70): 1.56 µg/mL
M.I.C. (Proteus 4/70): 1.56 µg/mL
M.I.C. (Proteus 7/70): 1.56 µg/mL
M.I.C. (Proteus 9/70): 6.25 µg/mL
MIC ([8]; passage 1): 3,12 μg/ml
MIC (Coliforma strain 4): 3.12 µg/mL
MIC [9]: > 100 µg/mL
MIC (Proteus strain 9): 3.12 µg/mL
MIC [10]: 50 µg/mL
MIC [11]: 100 µg/mL

CC1(C)S[C@@H]2[C@H](N=CN3CCCCCC3)C(=O)N2[C@H]1C(=O)O [II, 6-[(hexahydro-1H-azepin-1-yl)methyleneamino]penicillanic acid]
M.I.C. (Coliform 3/70): 12.5 µg/mL
M.I.C. (Coliform 9/70): 3.12 µg/mL
MIC ([8]; passage 0): 0.39 µg/mL
MIC ([8]; passage 1): 6.25 µg/mL
MIC ([8]; passage 2): 25 µg/mL
MIC ([8]; passage 3): 25 µg/mL
MIC ([8]; passage 4): 25 µg/mL
MIC ([8]; passage 5): 25 µg/mL
MIC ([8]; passage 7): 25 µg/mL
MIC ([8]; passage 8): 25 µg/mL
M.I.C. [12]: 100 µg/mL

CC1(C)S[C@@H]2[C@H](N=CN3CCCCC3)C(=O)N2[C@H]1C(=O)O [IV, 6-[(piperidyl-1)-methyleneamino]penicillanic acid]
M.I.C. (Coliform 14/70): 3.12 µg/mL
M.I.C. (Coliform 16/70): 1.56 µg/mL
M.I.C. (Coliform 7/70): 1.56 µg/mL
MIC (E.coli III): 6.25 µg/mL

CC1(C)S[C@@H]2[C@H](NC(=O)[C@H](N=[N+]=[N-])c3ccccc3)C(=O)N2[C@H]1C(=O)O [6-(D-α-azidophenylacetamido)penicillanic acid]
M.I.C. [1]: 50 µg/mL

CC1(C)S[C@@H]2[C@H](NC(=O)C(C(=O)O)c3ccccc3)C(=O)N2[C@H]1C(=O)O (stereo partly drawn) [α-carboxybenzylpenicillin]
M.I.C. [1]: 12.5 µg/mL

CC(=O)OCC1=C(C(=O)O)N2C(=O)[C@@H](NC(=O)Cc3cccs3)[C@H]2SC1 [VI, cephalotin]
MIC (Coliforma strain 14): 12.5 µg/mL
MIC (Coliforma strain 3): 6.25 µg/mL
MIC (Coliforma strain 7): 12.5 µg/mL
MIC [13]: 25 µg/mL
M.I.C. [14]: 50 µg/mL
M.I.C. [12]: 3.12 µg/mL

[N-]=[N+]=NCC1=C(C(=O)O)N2C(=O)C(NC(=O)Cc3cccs3)C2SC1 (centres unmarked) [EPC 821/4II]
M.I.C. [14]: 100 µg/mL
M.I.C. [12]: 12.5 µg/mL

CCN(C=N[C@@H]1C(=O)N2[C@@H]1SC(C)(C)[C@@H]2C(=O)O)CC [VII, 6-[(N,N-diethylformamidino)-N'-amino]penicillanic acid]
MIC (Coliforma strain 14): 12.5 µg/mL
MIC (Coliforma strain 3): 6.25 µg/mL
MIC [13]: > 100 µg/mL
MIC (Coliforma strain 4): 3.12 µg/mL
MIC [9]: > 100 µg/mL
MIC (Proteus strain 9): 100 µg/mL
MIC [10]: > 100 µg/mL
MIC [11]: > 100 µg/mL
